Results: patent US20120258938A1, “Enzymatic Production or Chemical Synthesis and Uses for 5,7-Dienes and UVB Conversion Products Thereof” (priority 2008, published 2012)

Tests used:
CYP24 promoter = experiment: CYP24-Luc reporter in HaCaT keratinocytes; format: cell-based, human
Description: Construct CYP24-Luc and VDRE-Luc constructs were a generous gift from Dr. Tai Cheng, Ph.D. (Boston University Medical Campus, Core Lab Director). It was originally developed by Vaisanen et al. (27). PLuc and NFκB-Luc construct was described previously (28-29). huVDR construct was a generous gift from Dr. D. Bikle. HaCaT keratinocytes were transfected with NFκB-Luc, CYP-24-Luc, VDRE-Luc and hVDR constructs using Lipofectamine Plus (Invitrogen, Carlsbad, Calif.) in DMEM medium with firefly luciferase reporter gene plasmid and with phRL-TK.
HaCaT keratinocytes were transfected with NFκB-Luc construct using Lipofectamine Plus (Invitrogen, Carlsbad, Calif.) in DMEM medium with firefly luciferase reporter gene plasmid and with phRL-TK (expresses Renilla luciferase and serves as normalization control; Promega, Madison, Wis.). After transfection cells were incubated for 24 h in complete medium, and then after change to fresh media treated with drug or vehicle (ethanol) at the concentration of 10 nM for 30 minutes, 1 h, 4 h, 16 h and 24 h. The firefly luciferase and Renilla luciferase signals were recorded with a TD-20/20 luminometer (Turner Designs, Sunnyvale, Calif.); background luminescence was subtracted and the resulting promoter specific firefly signal was divided by the Renilla signal (proportional to the number of transfected cells). The values obtained were divided by the mean of control (untreated) cells.

Human dermal fibroblasts = experiment: TGF-b1 induced collagen protein production by dermal fibroblasts; format: cell-based; details: collagenase sensitive protein; for TGF-b1 induced collagen protein production: [3H]-proline
Protocol: Human dermal fibroblasts grown from explant skin cultures at less than 10 subpassages were plated at 5×10^4 cells per well in 24 well Costar tissue culture plates and were grown to confluency. Complete MEM was then changed to serum free Complete MEM without non-essential amino acids. After 24 hours, culture medium was changed (450 μl/well) to the same and secosteroids listed in Table 14 were added in 10 μl absolute alcohol (ETOH) to a final concentration of 10^−9 and M, 3 replicate wells each. Vehicle control wells (n=6) contained 10 μl (ETOH). After 2 hour pre-incubation, hr TGF-b1 (R and D systems) was added to each well except ETOH wells at a final concentration of 5 ng/ml. After 48 hours of culture, plate wells were paused with 1μ Cl ^3[H]-proline. After 24 hours, culture supernatants were harvested and collagenase sensitive protein was determined as previously described (44).

involucrin = experiment: Involucrin protein expression in HaCaT (flow cytometry, microscopy); format: cell-based, human; details: 24 h; for expression of involucrin: 10 nM; for increase in the expression of involucrin: flow cytometry
HaCaT keratinocytes = experiment: Forward and side scatter (cell size, granularity) of HaCaT keratinocytes; format: cell-based, human; details: for Forward scatter [mean signal intensity] / Side scatter [mean signal intensity]: HaCaT keratinocytes, 10^−8 M, 24 h; for Forward scatter [mean signal intensity]: reflects cell size; for Side scatter [mean signal intensity]: reflects granularity; for forward and side scatter: result in words (Table 13)
Protocol: The FL-1 signal (collected from 10,000 events in side scatter/forward scatter window after debris exclusion) was recorded. Forward (relative to cell size) and side (relative to cell granularity) scatter histograms were generated and mean signal intensity was recorded. FL-1 signal values are presented as dMFI (difference between mean fluorescence intensity of sample stained with specific and isotype control antibody). Scatter signal values are presented as MSI (mean signal intensity). Signal intensities were analyzed with Cell Quest (BD Biosciences, San Diego, Calif.) and graphical representations of the FL-1 signal were prepared with WinMdi 2.8 (shareware from Joseph Trotter, The Scripps Research Institute, San Diego, Calif.).

[1] = system: anti-CD3 stimulated DBA/1 Lac J spleen cells; experiment: Cytokine/chemokine production by anti-CD3 stimulated spleen cells (Luminex); format: cell-based, mouse; details: 5 days; for G-CSF / GM-CSF / IFNγ / IL-1α / IL-6 / IL-10 / IL-17 / IP-10 / KC / MCP-1: spleen cells + anti-CD3 (4 μg/ml) + analogue 10^−7 M, supernatant, one mouse; for Th2 cytokine (IL-10) production: anti-CD3, 10^−7 M
Protocol: Vitamin D analogues were solubilzed in absolute alcohol (EtOH) and added at 1:100 dilution to cultures of spleen cells from normal DBA/1 Lac J mice (Table 13). […] Therefore, changes are not due to decreased cell viability.
Spleen cells from three normal 8 wk old female DBA/1 Lac J mice were cultured in 96 well tissue culture plates in quadruplicate at 2×10^6 cells/ml in RPMI 1640 medium containing 9% FCS with and without anti-CD3 (4 μg/ml) and with anti-CD3+10^−7M natural vitamin D analogues for 5 days after which time supernatants were harvested and subjected to cytokine multiplex on a Luminex instrument using Milliplex Mouse Kit (values are pg/ml). The general trend in changes in cytokine levels were similar for each of the mice but some produced different levels of each cytokine for each culture additions. Data from one mouse are given and bold numbers indicate those that changed from anti-CD3 stimulated culture with vitamin D analogues added. There was no significant stimulation of IL-1 g, IL-2, IL-4, IL-5, IL-7, IL-9, IL-12 p70, IL-13, IL-15, MIP-2, RANTES or TNFα with the anti-CD3 MOAB.

[2] = HaCaT, 20-hydroxycholecalciferol at 0.1 nM

C=C1/C(=C\C=C2/CCC[C@]3(C)[C@@H]([C@H](C)CCCC(C)(C)O)CC[C@@H]23)C[C@@H](O)C[C@@H]1O [1α,25-dihydroxycholecalciferol, (5Z,7E)-9,10-secocholesta-5,7,10(19)-triene-1α,3β,25-triol, reference compound]
CYP24 promoter activity (CYP24 promoter): stimulated transcriptional activity of CYP24 promoter
TGF-b1 induced collagen protein production (Human dermal fibroblasts): inhibited TGF-b1 induced collagen protein production
expression of involucrin (involucrin): increase of expression of involucrin
increase in the expression of involucrin (involucrin; 10^−8 M): negligible
Forward scatter [mean signal intensity] (HaCaT keratinocytes): 122.12 ± 23.98 mean signal intensity
Side scatter [mean signal intensity] (HaCaT keratinocytes): 143.46 ± 15.76 mean signal intensity
forward and side scatter (HaCaT keratinocytes; HaCaT): only the effect on forward scatter was statistically significant
side scatter, mean signal intensity (MSI) (HaCaT keratinocytes; [2]): 219±4
G-CSF [1]: 11 pg/mL
GM-CSF [1]: 7 pg/mL
IFNγ [1]: 0 pg/mL
IL-1α [1]: 1 pg/mL
IL-6 [1]: 12 pg/mL
IL-10 [1]: 1 pg/mL
IL-17 [1]: 1 pg/mL
IP-10 [1]: 5 pg/mL
KC [1]: 3 pg/mL
MCP-1 [1]: 197 pg/mL

C=C1CC[C@H](O)C/C1=C/C=C1\CCC[C@]2(C)[C@@H](C(C)=O)CC[C@@H]12 [pD3, (5Z,7E)-3β-hydroxy-9,10-secopregna-5,7,10(19)-trien-20-one]
TGF-b1 induced collagen protein production (Human dermal fibroblasts): inhibited TGF-b1 induced collagen protein production
Collagen CPM/Well (mean ± SEM) × 10^−5 FB (Human dermal fibroblasts; hrTGF-b1 5 ng/ml, secosteroids at 10^−10M, 3[H]-proline): 181 ± 14 CPM/Well × 10^−5 FB

C=C1CC[C@H](O)C/C1=C/C=C1\CCC[C@]2(C)[C@@H](C(C)(O)CC(O)CC(C)C)CC[C@@H]12 (stereo partly drawn) [20,23-dihydroxycholecalciferol, (5Z,7E)-9,10-secocholesta-5,7,10(19)-triene-3β,20,23-triol]
CYP24 promoter activity (CYP24 promoter): stimulated activity of CYP24 promoter poorly
expression of involucrin (involucrin): stimulated expression of involucrin gene
Forward scatter [mean signal intensity] (HaCaT keratinocytes): 87.74 ± 29.18 mean signal intensity
Side scatter [mean signal intensity] (HaCaT keratinocytes): 154.4 ± 30 mean signal intensity
forward and side scatter (HaCaT keratinocytes; HaCaT): increased significantly both forward and side scatter
Th2 cytokine (IL-10) production [1]: increased
G-CSF [1]: 103 pg/mL
GM-CSF [1]: 47 pg/mL
IFNγ [1]: 271 pg/mL
IL-1α [1]: 11 pg/mL
IL-6 [1]: 40 pg/mL
IL-10 [1]: 56 pg/mL
IL-17 [1]: 57 pg/mL
IP-10 [1]: 96 pg/mL
KC [1]: 47 pg/mL
MCP-1 [1]: 182 pg/mL

C=C1CC[C@H](O)C/C1=C/C=C1\CCC[C@@]2(C)[C@H]1CC[C@@H]2[C@@](C)(O)CCCC(C)C [20(OH)D3, (5Z,7E)-9,10-secocholesta-5,7,10(19)-triene-3β,20-diol]
CYP24 promoter activity (CYP24 promoter): failed to stimulate the CYP24 promoter activity
TGF-b1 induced collagen protein production (Human dermal fibroblasts): inhibited TGF-b1 induced collagen protein production
involucrin dMFI (involucrin; 10^−8 M): 71±8
increase in the expression of involucrin (involucrin; 10^−8 M): ~3.7 fold
forward scatter, mean signal intensity (MSI) (HaCaT keratinocytes; [2]): 251±2
side scatter, mean signal intensity (MSI) (HaCaT keratinocytes; [2]): 210±6
Th2 cytokine (IL-10) production [1]: increased
G-CSF [1]: 10 pg/mL
GM-CSF [1]: 51 pg/mL
IFNγ [1]: 494 pg/mL
IL-1α [1]: 8 pg/mL
IL-6 [1]: 55 pg/mL
IL-10 [1]: 37 pg/mL
IL-17 [1]: 59 pg/mL
IP-10 [1]: 83 pg/mL
KC [1]: 39 pg/mL
MCP-1 [1]: 100 pg/mL
